From ChEMBL document CHEMBL5252512, “Recent Progress in the Development of HIV-1 Protease Inhibitors for the Treatment of HIV/AIDS” (J Med Chem, 2016)

What follows are compounds tested on Human immunodeficiency virus 1 (assay: Ratio of EC50 for antiviral activity against HIV1-T13436 to EC50 for antiviral activity against wild type HIV1 r13205). Conditions: not given.
Type: functional
In the case of `CC(C)CN(C[C@@H](O)[C@H](Cc1ccccc1)NC(=O)O[C@H]1CO[C@H]2OCC[C@H]21)S(=O)(=O)c1ccc(N)cc1`, the “Ratio EC50” value is reported as 2.2.

The compounds below were run on Human immunodeficiency virus 1 (assay: Antiviral activity against HIV1 T21217 infected in human MT4 cells expressing LTR and EGFP assessed as inhibition of virus-induced cytopathic effect by fluorescence microscopic analysis). Conditions: Human immunodeficiency virus 1, T21217, MT4.
Type: functional, organism-based
`CC(C)CN(C[C@@H](O)[C@H](Cc1ccccc1)NC(=O)O[C@H]1CO[C@H]2OCC[C@H]21)S(=O)(=O)c1ccc(N)cc1` showed an EC50 of 84 nM.

Each compound was assayed on Human immunodeficiency virus 1 (assay: Ratio of EC50 for antiviral activity against darunavir-resistant HIV1 20P to EC50 for antiviral activity against wild type HIV1 ERS104pre). Conditions: not given.
Type: functional
`CC(C)CN(C[C@@H](O)[C@H](Cc1ccccc1)NC(=O)O[C@H]1CO[C@H]2OCC[C@H]21)S(=O)(=O)c1ccc(N)cc1` was tested, and the “Ratio EC50” value was 64.

The compounds below were run on Human immunodeficiency virus 1 (assay: Antiviral activity against HIV1 T13717 infected in human MT4 cells expressing LTR and EGFP assessed as inhibition of virus-induced cytopathic effect by fluorescence microscopic analysis). Conditions: Human immunodeficiency virus 1, T13717, MT4.
Type: functional, organism-based
For `CC(C)CN(C[C@@H](O)[C@H](Cc1ccccc1)NC(=O)O[C@H]1CO[C@H]2OCC[C@H]21)S(=O)(=O)c1ccc(N)cc1`, the EC50 was 670 nM.

Each compound was assayed on Human immunodeficiency virus 1 (assay: Antiviral activity against wild type HIV1 r13205 infected in human MT4 cells expressing LTR and EGFP assessed as inhibition of virus-induced cytopathic effect by fluorescence microscopic analysis). Conditions: Human immunodeficiency virus 1, r13205, MT4.
Type: functional, organism-based
Compound `CC(C)CN(C[C@@H](O)[C@H](Cc1ccccc1)NC(=O)O[C@H]1CO[C@H]2OCC[C@H]21)S(=O)(=O)c1ccc(N)cc1` has an EC50 of 22 nM.

The compounds below were run on Human immunodeficiency virus 1 (assay: Ratio of EC50 for antiviral activity against HIV1-JSL to EC50 for antiviral activity against wild type HIV1 ERS104pre). Conditions: not given.
Type: functional
With `CC(C)CN(C[C@@H](O)[C@H](Cc1ccccc1)NC(=O)O[C@H]1CO[C@H]2OCC[C@H]21)S(=O)(=O)c1ccc(N)cc1` the “Ratio EC50” value was 6.

Each compound was assayed on Human immunodeficiency virus 1 (assay: Ratio of EC50 for antiviral activity against HIV1-T20760 to EC50 for antiviral activity against wild type HIV1 r13205). Conditions: not given.
Type: functional
`CC(C)CN(C[C@@H](O)[C@H](Cc1ccccc1)NC(=O)O[C@H]1CO[C@H]2OCC[C@H]21)S(=O)(=O)c1ccc(N)cc1` was tested, and the “Ratio EC50” value was 1.8.

The compounds below were run on Human immunodeficiency virus 1 (assay: Ratio of EC50 for antiviral activity against HIV1-T13717 to EC50 for antiviral activity against wild type HIV1 r13205). Conditions: not given.
Type: functional
`CC(C)CN(C[C@@H](O)[C@H](Cc1ccccc1)NC(=O)O[C@H]1CO[C@H]2OCC[C@H]21)S(=O)(=O)c1ccc(N)cc1` was tested, and the “Ratio EC50” value was 30.

These compounds were tested on Human immunodeficiency virus 1 (assay: Antiviral activity against wild type HIV1 ERS104pre infected in human PBMC cells assessed as inhibition of virus-induced cytopathic effect measured after 7 days by MTT assay). Conditions: Human immunodeficiency virus 1, ERS104pre, 168 h.
Type: functional, organism-based
Work on `CC(C)CN(C[C@@H](O)[C@H](Cc1ccccc1)NC(=O)O[C@H]1CO[C@H]2OCC[C@H]21)S(=O)(=O)c1ccc(N)cc1` yielded an EC50 of 3.8 nM.

Each compound was assayed on Human immunodeficiency virus 1 (assay: Ratio of EC50 for antiviral activity against HIV1-MM to EC50 for antiviral activity against wild type HIV1 ERS104pre). Conditions: not given.
Type: functional
In the case of `CC(C)CN(C[C@@H](O)[C@H](Cc1ccccc1)NC(=O)O[C@H]1CO[C@H]2OCC[C@H]21)S(=O)(=O)c1ccc(N)cc1`, the “Ratio EC50” value is reported as 3.

Each compound was assayed on Human immunodeficiency virus 1 (assay: Antiviral activity against multidrug-resistant HIV1-G infected in phytohemagglutinin-activated human PBMC cells assessed as inhibition of virus-induced cytopathic effect measured after 7 days by MTT assay). Conditions: Human immunodeficiency virus 1, G, 168 h.
Type: functional, organism-based
`CC(C)CN(C[C@@H](O)[C@H](Cc1ccccc1)NC(=O)O[C@H]1CO[C@H]2OCC[C@H]21)S(=O)(=O)c1ccc(N)cc1` showed an EC50 of 7 nM.

What follows are compounds tested on Human immunodeficiency virus 1 (assay: Ratio of EC50 for antiviral activity against HIV1-T21055 to EC50 for antiviral activity against wild type HIV1 r13205). Conditions: not given.
Type: functional
In the case of `CC(C)CN(C[C@@H](O)[C@H](Cc1ccccc1)NC(=O)O[C@H]1CO[C@H]2OCC[C@H]21)S(=O)(=O)c1ccc(N)cc1`, the “Ratio EC50” value is reported as 5.5.

What follows are compounds tested on Human immunodeficiency virus 1 (assay: Antiviral activity against multidrug-resistant HIV1-C infected in phytohemagglutinin-activated human PBMC cells assessed as inhibition of virus-induced cytopathic effect measured after 7 days by MTT assay). Conditions: Human immunodeficiency virus 1, C, 168 h.
Type: functional, organism-based
Work on `CC(C)CN(C[C@@H](O)[C@H](Cc1ccccc1)NC(=O)O[C@H]1CO[C@H]2OCC[C@H]21)S(=O)(=O)c1ccc(N)cc1` yielded an EC50 of 5 nM.

The compounds below were run on Human immunodeficiency virus 1 (assay: Antiviral activity against multidrug-resistant HIV1-JSL infected in phytohemagglutinin-activated human PBMC cells assessed as inhibition of virus-induced cytopathic effect measured after 7 days by MTT assay). Conditions: Human immunodeficiency virus 1, JSL, 168 h.
Type: functional, organism-based
`CC(C)CN(C[C@@H](O)[C@H](Cc1ccccc1)NC(=O)O[C@H]1CO[C@H]2OCC[C@H]21)S(=O)(=O)c1ccc(N)cc1` gave an EC50 of over 25 nM.

Each compound was assayed on Human immunodeficiency virus 1 (assay: Ratio of EC50 for antiviral activity against HIV1-C to EC50 for antiviral activity against wild type HIV1 ERS104pre). Conditions: not given.
Type: functional
In the case of `CC(C)CN(C[C@@H](O)[C@H](Cc1ccccc1)NC(=O)O[C@H]1CO[C@H]2OCC[C@H]21)S(=O)(=O)c1ccc(N)cc1`, the “Ratio EC50” value is reported as 2.

What follows are compounds tested on Human immunodeficiency virus 1 (assay: Antiviral activity against HIV1 T13436 infected in human MT4 cells expressing LTR and EGFP assessed as inhibition of virus-induced cytopathic effect by fluorescence microscopic analysis). Conditions: Human immunodeficiency virus 1, T13436, MT4.
Type: functional, organism-based
In the case of `CC(C)CN(C[C@@H](O)[C@H](Cc1ccccc1)NC(=O)O[C@H]1CO[C@H]2OCC[C@H]21)S(=O)(=O)c1ccc(N)cc1`, the EC50 is reported as 49 nM.

The compounds below were run on Human immunodeficiency virus 1 (assay: Antiviral activity against HIV1 T20760 infected in human MT4 cells expressing LTR and EGFP assessed as inhibition of virus-induced cytopathic effect by fluorescence microscopic analysis). Conditions: Human immunodeficiency virus 1, T20760, MT4.
Type: functional, organism-based
`CC(C)CN(C[C@@H](O)[C@H](Cc1ccccc1)NC(=O)O[C@H]1CO[C@H]2OCC[C@H]21)S(=O)(=O)c1ccc(N)cc1` was tested, and the EC50 was 39 nM.
